In patent publication US11224222B2, “Synergistic compositions of dehydroacetic acid and methods for reducing yellowing in various end-user compositions” (ISP Investments LLC, priority 2015, dated 2022):
Read-outs that look alike come from different tables or passages of the source.

Tests used:
Mold Mixture = assay: Preservative Efficacy Test in Lamellar Prolipid formulation: Mold Mixture; assay type: cell-based
Excerpt: (§1) The detailed composition of these end-user products comprising DHA solubilized Propyelene Carbonate is described below in detail.

Bacterial Mixture = assay: Preservative Efficacy Test in Lamellar Prolipid formulation: Bacterial Mixture; assay type: cell-based
Excerpt: as §1

S. aureus = assay: Preservative Efficacy Test in Lamellar Prolipid formulation: S. aureus; assay type: cell-based
Excerpt: as §1

[1] = Yellowing of DHA in aprotic and protic solvents; assay type: physicochemical
Excerpt: The various solvents selected are disclosed in Table 8.
The yellowing of DHA increased drastically when aprotic aromatic compounds were present along with DHA due to radical coupling between DHA and such solvents comprising aromatic compounds.
The decomposition of DHA was low at room temperature (RT) and at high temperature, wherein, the small amount of DHA decompose to form a radical and couple by themselves to form traces high of epsilon chromophoric products and if aromatic aprotic solvents are present along with DHA in solution they couple to form a longer chromophore with high intensity yellow color in water.

[2] = Solubility of DHA in aprotic and protic solvents
Excerpt: In order to choose the suitable solvent for preparing non-yellowing DHA composition, the different possible protic, aprotic solvents were selected and evaluated individually and also as their suitable mixture.
In case of aprotic solvents, it was selected based on its compatibility with other ingredients present in the end-user products. Further, the regulatory requirement was also considered as an important element in choosing preferred aprotic solvent for preparing non-yellowing/reduced-yellowing DHA composition of the present application. The high content of DHA can be introduced in the solvent by dispersing or dissolving the DHA in their corresponding aprotic solvents. […] The various solvents selected are disclosed in Table 8.
Further, the applicants have evaluated various protic solvents to understand their ability to render non-yellowing/reduced-yellowing DHA composition for employing in various end-user products that are aqueous in nature.

S. aureus (ATCC 6538) = assay: Synergism study (MIC, synergy index) of DHA with aprotic solvents: S. aureus; assay type: cell-based
Protocol: (§2) Tryptic Soy Broth (TSB) media was used for bacterial evaluations and Yeast Malt Broth (YMB) for fungal evaluations. The compounds DHA or the aprotic solvents were added to the media and serially diluted. After serially diluting the media, 100 μl of a suspension of the testing bacteria or fungi were added to a final concentration of approximately 106 −5 CFU/ml. The inoculated media was then incubated at 32° C. for 2-5 days for bacteria or at 28° C. for 3-7 days for fungi.
(§3) The lowest concentration of each compound or mixtures to inhibit visible growth was taken as the minimum inhibitory concentration (MIC). The MIC's were taken as end points of activity. End points for the mixtures of compound A (DHA) and compound B (aprotic solvent) were then compare with the end points for the pure active ingredient alone.
(§4) Synergism was determined by a commonly used and accepted method described by Kull A. C.; Eisman, P. C.; Sylwestrowicz, H. D. and Mayer, R. L. 1961. […]

[3] = system: A. brasilensts (ATCC 16404); assay: Synergism study (MIC, synergy index) of DHA with aprotic solvents: A. brasilensts; assay type: cell-based
Protocol: as §2, §3, §4

E. coli (ATCC 8739) = assay: Synergism study (MIC, synergy index) of DHA with aprotic solvents: E. coli; assay type: cell-based
Protocol: as §2, §3, §4

[4] = DHA in the named protic polar solvent, RT
[5] = DHA in the named protic polar solvent (Table 9)
[6] = DHA in the named aprotic solvent, RT, 1 month

Compound: CCCCCCC(O)CO (stereo not shown) [0.5% octanediol]
- Preservative Efficacy Test count, Mold Mixture, Days 2 (Mold Mixture; day 2): 2.10E+04
- Preservative Efficacy Test count, Mold Mixture, Days 7 (Mold Mixture; day 7): 1.80E+04
- Preservative Efficacy Test count, Mold Mixture, Days 14 (Mold Mixture; day 14): 4.40E+03
- Preservative Efficacy Test count, Mold Mixture, Days 21 (Mold Mixture; day 21): 4.30E+03
- Preservative Efficacy Test count, Mold Mixture, Days 28 (Mold Mixture; day 28): 5.00E+04
- Preservative Efficacy Test count, Bacterial Mixture, Days 2 (Bacterial Mixture; day 2): <10
- Preservative Efficacy Test count, Bacterial Mixture, Days 7 (Bacterial Mixture; day 7): <10
- Preservative Efficacy Test count, Bacterial Mixture, Days 14 (Bacterial Mixture; day 14): <10
- Preservative Efficacy Test count, Bacterial Mixture, Days 21 (Bacterial Mixture; day 21): <10
- Preservative Efficacy Test count, Bacterial Mixture, Days 28 (Bacterial Mixture; day 28): <10
- Preservative Efficacy Test count, S. aureus, Days 2 (S. aureus; day 2): 4.00E+01
- Preservative Efficacy Test count, S. aureus, Days 7 (S. aureus; day 7): <10
- Preservative Efficacy Test count, S. aureus, Days 14 (S. aureus; day 14): <10
- Preservative Efficacy Test count, S. aureus, Days 21 (S. aureus; day 21): <10
- Preservative Efficacy Test count, S. aureus, Days 28 (S. aureus; day 28): <10

Compound: CCCCC(O)CO (stereo not shown) [1,2hexanediol]
- Yellowing at RT For 1 month [1, 4]: Yellow in 9 days

Compound: CCCCCCC(O)CO (stereo not shown) [Capryl glycol]
- Yellowing at RT For 1 month [1, 4]: Yellow in 30 days
- % of DHA soluble [2, 5]: 2.5%

Compound: C1CCCCC1 [Cyclohexane]
- Yellowing At 50° C. ([1]; DHA in the named aprotic solvent, 50° C., figures in brackets = Gardner color): Slight yellowing (2-3)
- Yellowing at RT For 1 month [1, 6]: No yellowing
- % of DHA soluble [2]: 3-5%

Compound: CO[C@H]1CO[C@H]2[C@@H]1OC[C@H]2OC [Dimethyl isosorbide]
- Solvent (B): MIC of solvent acting alone (QB) (S. aureus (ATCC 6538)): 12500 ppm
- Solvent (B): MIC of solvent acting alone (QB) [3]: 3125 ppm
- % of DHA soluble ([2]; DHA in the named aprotic solvent (Table 8)): 8-10%
- Solvent (B): MIC of solvent acting alone (QB) (E. coli (ATCC 8739)): 12500 ppm

Compound: COC(=O)C(C)O (stereo not shown) [Methyl lactate]
- Yellowing at RT For 1 month [1, 6]: No yellow

Compound: CC1COC(=O)O1 (stereo not shown) [Propylene carbonate, propylene carbonate]
- MIC (S. aureus (ATCC 6538); Staphylococcus aureus, ATCC6538, read-out: Solvent (B): MIC of solvent acting alone (QB)): 12500 µg/mL
- MIC ([3]; read-out: Solvent (B): MIC of solvent acting alone (QB)): 6250 µg/mL
- Yellowing at RT For 1 month [1, 6]: No yellowing
- MIC (E. coli (ATCC 8739); Escherichia coli, ATCC8739, read-out: Solvent (B): MIC of solvent acting alone (QB)): 6250 µg/mL

Compound: Phenethyl ethanol
- Yellowing at RT For 1 month [1]: Yellow on day one
- % of DHA soluble [2, 5]: 8%

Compound: Phenethylpropanol
- Yellowing at RT For 1 month [1, 4]: yellow on day one
- % of DHA soluble [2]: 8%
- Comments ([2]; pH 8): Crystallize

Compound: Water
- Yellowing at RT For 1 month ([1]; DHA in Water, pH 4): No yellowing
- Yellowing at RT For 1 month ([1]; DHA in Water, pH 8): Slight yellowing
